From patent publication US20060286173A1, “Drug delivery system for sub-tenon s capsule adminstration of fine grains” (priority 2003, published 2006)

Test: In vitro drug release test
Format: physicochemical
Conditions: 0.1 M phosphate buffer pH 7.4, 37° C.
Method: This mixture was placed in a glass vessel, and thereto was added 98.5 mL of 0.1 M phosphate buffer (pH 7.4). The entire mixture was shaken in a water bath at 37° C., and the in vitro drug release test was started. […] As a control, the powder of each drug in the same amount was charged into the chamber described above, and the release test was conducted in the same manner.
2) On day 1, 2, 6, 14, 29 after starting the test, the buffer was sampled in its entirety, which was analyzed using high performance liquid chromatography. Also, after the sampling, 98.5 mL of 0.1 M phosphate buffer (pH 7.4) was freshly added, and the release test was continued.

For `CC1(C)O[C@@H]2C[C@H]3[C@@H]4C[C@H](F)C5=CC(=O)C=C[C@]5(C)[C@@]4(F)[C@@H](O)C[C@]3(C)[C@]2(C(=O)CO)O1` [Fluocinolone acetonide powder, fluocinolone acetonide], which “In vitro drug release rate (%)” value (Day 1) is on record?
Its value is 57.6%.

And the “In vitro drug release rate (%)” value (Day 2)?
Its value is 73.4%.
